Experimental data reported in patent US9682959B2, “Ethynyl derivatives” (Hoffmann-La Roche Inc., priority 2013, dated 2017).

Target: rat mGlu 5a receptor (Rattus norvegicus (Rat), UniProt P31424)
Assay: MPEP binding / [Ca2+]i FLIPR measurement on mGlu 5a transfected EBNA cells, antagonists tested against 10 μM glutamate
Conditions: rat mGlu 5a receptor transiently transfected into EBNA cells; Ki calculated from IC50
Procedure: The pharmacological activity of the compounds was tested using the following method: cDNA encoding rat mGlu 5a receptor was transiently transfected into EBNA cells using a procedure described by E.-J. Schlaeger and K. Christensen (Cytotechnology 1998, 15, 1-13). [Ca^2+]i measurements were performed on mGlu 5a transfected EBNA cells after incubation of the cells with Fluo 3-AM (obtainable by FLUKA, 0.5 μM final concentration) for 1 hour at 37° C. followed by 4 washes with assay buffer (DMEM supplemented with Hank's salt and 20 mM HEPES. [Ca^2+]i measurements were done using a fluorometric imaging plate reader (FLIPR, Molecular Devices Corporation, La Jolla, Calif., USA). When compounds were evaluated as antagonists they were tested against 10 μM glutamate as agonist.
The inhibition (antagonists) curves were fitted with a four parameter logistic equation giving IC50, and Hill coefficient using the iterative non linear curve fitting software Origin (Microcal Software Inc., Northampton, Mass., USA).
The Ki values of the compounds tested are given. The Ki value is defined by the following formula:
[formula] in which the IC50 values are those concentrations of the compounds tested in μM by which 50% of the effect of compounds are antagonized. [L] is the concentration and the EC50 value is the concentration of the compounds in μM which brings about 50% stimulation.
The compounds of the present invention are mGluR5 receptor antagonists.

Chain of rat mGlu 5a receptor (P31424 other isoform, or with tags, fused parts or gaps): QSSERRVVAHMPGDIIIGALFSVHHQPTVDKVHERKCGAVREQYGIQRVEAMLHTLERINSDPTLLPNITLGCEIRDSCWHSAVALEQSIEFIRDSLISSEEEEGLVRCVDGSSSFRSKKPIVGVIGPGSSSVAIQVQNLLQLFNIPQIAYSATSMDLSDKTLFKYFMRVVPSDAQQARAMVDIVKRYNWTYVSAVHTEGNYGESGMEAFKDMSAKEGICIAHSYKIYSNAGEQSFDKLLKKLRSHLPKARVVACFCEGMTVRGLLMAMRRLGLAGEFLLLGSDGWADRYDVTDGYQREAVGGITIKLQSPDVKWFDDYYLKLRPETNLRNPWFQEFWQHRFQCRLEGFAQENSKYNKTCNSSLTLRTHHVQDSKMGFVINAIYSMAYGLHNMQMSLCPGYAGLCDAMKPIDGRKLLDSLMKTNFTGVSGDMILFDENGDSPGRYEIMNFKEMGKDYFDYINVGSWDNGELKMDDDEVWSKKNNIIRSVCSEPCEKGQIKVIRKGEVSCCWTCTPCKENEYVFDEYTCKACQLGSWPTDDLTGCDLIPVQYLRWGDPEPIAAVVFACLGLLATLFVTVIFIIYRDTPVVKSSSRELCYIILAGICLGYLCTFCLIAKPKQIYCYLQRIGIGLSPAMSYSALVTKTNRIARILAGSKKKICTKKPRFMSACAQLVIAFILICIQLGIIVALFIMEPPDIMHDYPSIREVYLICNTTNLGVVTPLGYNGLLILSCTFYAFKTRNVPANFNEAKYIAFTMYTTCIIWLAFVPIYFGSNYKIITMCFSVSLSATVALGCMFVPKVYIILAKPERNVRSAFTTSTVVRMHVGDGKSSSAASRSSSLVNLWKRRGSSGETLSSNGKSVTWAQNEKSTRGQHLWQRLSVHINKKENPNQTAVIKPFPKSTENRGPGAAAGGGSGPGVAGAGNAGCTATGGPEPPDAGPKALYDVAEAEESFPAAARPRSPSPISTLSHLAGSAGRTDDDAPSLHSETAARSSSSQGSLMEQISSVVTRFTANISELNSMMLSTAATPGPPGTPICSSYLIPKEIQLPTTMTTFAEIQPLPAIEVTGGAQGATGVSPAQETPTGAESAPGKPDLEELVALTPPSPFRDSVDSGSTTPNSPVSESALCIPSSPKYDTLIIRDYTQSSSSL

Row | SMILES | Ki [nM]
1 | CN1C(=O)C(C)(C)N=C1c1ccc(C#Cc2cccc(Cl)c2)cn1 [Example 3, 2-[5-[2-(3-Chlorophenyl)ethynyl]-2-pyridyl]-3,5,5-trimethyl-imidazol-4-one] | 16
2 | CN1C(=O)C(C)(C)N=C1c1ncc(C#Cc2cccc(Cl)c2)cn1 [Example 4, 2-[5-[2-(3-Chlorophenyl)ethynyl]-2-pyrimidyl]-3,5,5-trimethyl-imidazol-4-one] | 80
3 | CN1C(=O)C(C)(C)N=C1c1ccc(C#Cc2ccccc2)cn1 [Example 2, 3,5,5-Trimethyl-2-[5-(2-phenylethynyl)-2-pyridyl]imidazol-4-one] | 38
4 | CN1C(=O)C(C)(C)N=C1c1ncc(C#Cc2ccccc2)cn1 [Example 5, 3,5,5-Trimethyl-2-[5-(2-phenylethynyl)-2-pyrimidyl]imidazol-4-one] | 281
5 | CN1C(=O)C(C)(C)N=C1c1ncc(C#Cc2cccc(F)c2)cn1 [Example 6, 2-[5-[2-(3-Fluorophenyl)ethynyl]-2-pyrimidyl]-3,5,5-trimethyl-imidazol-4-one] | 280
6 | CN1C(=O)C(C)(C)N=C1c1ccc(C#Cc2cccc(F)c2)cn1 [Example 1, 2-[5-[2-(3-Fluorophenyl)ethynyl]-2-pyridyl]-3,5,5-trimethyl-imidazol-4-one] | 18
